Tests used:
[1] = target: vcFabH2 (C113A) (Vibrio cholerae serotype O1, UniProt Q9KLJ3, C113A); type: binding; settings: for Binding sites/molecule (Stoichiometry): pH 7.5
[2] = target: vcFabH1 (Vibrio cholerae serotype O1, UniProt Q9KQH5); assay: biochemical; type: biochemical; settings: for Reaction rate relative to that of acetyl-CoA: pH 7.5
[3] = target: vcFabH2 (C356A) (Vibrio cholerae serotype O1, UniProt Q9KLJ3, C356A); type: binding
[4] = target: vcFabH2 (Vibrio cholerae serotype O1, UniProt Q9KLJ3); assay: biochemical; type: biochemical

Structure (SMILES) | ΔH [1] | ΔS [1] | Binding sites/molecule (Stoichiometry) [1] | Reaction rate relative to that of acetyl-CoA [2] | Binding sites/molecule (Stoichiometry) [3] | ΔH [3] | ΔS [3] | Hill coefficient n [4] | Kd [4] | Vmax (maximum activity) [4] | Hill coefficient n [2] | Kd [2] | Vmax (maximum activity) [2]
CC(C)C(=O)SCCNC(=O)CCNC(=O)[C@H](O)C(C)(C)COP(=O)(O)OP(=O)(O)OC[C@H]1O[C@@H](n2cnc3c(N)ncnc32)[C@H](O)[C@@H]1OP(=O)(O)O [Isobutyryl-CoA] | -8570 cal/mol | −13.00 cal∙mol^−1∙K^−1 | 0.77 ± 0.18 |  |  |  |  |  |  |  |  |  | 
CCCCCC(=O)SCCNC(=O)CCNC(=O)[C@H](O)C(C)(C)COP(=O)(O)OP(=O)(O)OC[C@H]1O[C@@H](n2cnc3c(N)ncnc32)[C@H](O)[C@@H]1OP(=O)(O)O [Hexanoyl-CoA] | -11780 cal/mol | −22.10 cal∙mol^−1∙K^−1 | 0.878 ± 0.004 | lower than 20% | 1 | -1847 cal/mol | 8.50 cal∙mol^−1∙K^−1 |  |  |  |  |  | 
CCCCCCCCCC(=O)SCCNC(=O)CCNC(=O)[C@H](O)C(C)(C)COP(=O)(O)OP(=O)(O)OC[C@H]1O[C@@H](n2cnc3c(N)ncnc32)[C@H](O)[C@@H]1OP(=O)(O)O [Decanoyl-CoA] | -7457 cal/mol | −4.24 cal∙mol^−1∙K^−1 | 1.36 ± 0.01 |  | 1 | -11680 cal/mol | −25.30 cal∙mol^−1∙K^−1 |  |  |  |  |  | 
CCCCCCCCCCCC(=O)SCCNC(=O)CCNC(=O)[C@H](O)C(C)(C)COP(=O)(O)OP(=O)(O)OC[C@H]1O[C@@H](n2cnc3c(N)ncnc32)[C@H](O)[C@@H]1OP(=O)(O)O [Lauroyl-CoA] | -6563 cal/mol | −4.60 cal∙mol^−1∙K^−1 | 1.38 ± 0.02 |  |  |  |  |  |  |  |  |  | 
CCCCCCCC(=O)SCCNC(=O)CCNC(=O)[C@H](O)C(C)(C)COP(=O)(O)OP(=O)(O)OC[C@H]1O[C@@H](n2cnc3c(N)ncnc32)[C@H](O)[C@@H]1OP(=O)(O)O [Octanoyl-CoA] | -12670 cal/mol | −22.30 cal∙mol^−1∙K^−1 | 0.90 ± 0.01 | lower than 20% | 1 | -3414 cal/mol | 4.43 cal∙mol^−1∙K^−1 | 1.8±0.2 | 24.2 ± 2.2 µM | 18.0±1.1 μmol∙min^−1∙μmol^−1 |  |  | 
CC(C)CC(=O)SCCNC(=O)CCNC(=O)[C@H](O)C(C)(C)COP(=O)(O)OP(=O)(O)OC[C@H]1O[C@@H](n2cnc3c(N)ncnc32)[C@H](O)[C@@H]1OP(=O)(O)O [Isovaleryl-CoA] | -9347 cal/mol | −16.20 cal∙mol^−1∙K^−1 | 0.74 ± 0.03 | lower than 20% |  |  |  |  |  |  |  |  | 
CCCC(=O)SCCNC(=O)CCNC(=O)[C@H](O)C(C)(C)COP(=O)(O)OP(=O)(O)OC[C@H]1O[C@@H](n2cnc3c(N)ncnc32)[C@H](O)[C@@H]1OP(=O)(O)O [Butyryl-CoA] | -8259 cal/mol | −12.00 cal∙mol^−1∙K^−1 | 0.87 ± 0.03 |  |  |  |  |  |  |  |  |  | 
CC(=O)SCCNC(=O)CCNC(=O)[C@H](O)C(C)(C)COP(=O)(O)OP(=O)(O)OC[C@H]1O[C@@H](n2cnc3c(N)ncnc32)[C@H](O)[C@@H]1OP(=O)(O)O [Acetyl-CoA] | -14490 cal/mol | −34.70 cal∙mol^−1∙K^−1 | 0.69 ± 0.05 |  |  |  |  |  |  |  | 1.6±0.2 | 21.2 ± 2.9 µM | 14.0±1.1 μmol∙min^−1∙μmol^−1

From publication PMC6105497 (The FEBS journal, 2018)
